From ChEMBL document CHEMBL4842357, “Discovery of Novel Apigenin-Piperazine Hybrids as Potent and Selective Poly (ADP-Ribose) Polymerase-1 (PARP-1) Inhibitors for the Treatment of Cancer” (J Med Chem, 2021)
pIC50: −log10 of the molar value.

How the values were obtained:
[1] = molecular target: Poly [ADP-ribose] polymerase 2 (Homo sapiens, UniProt Q9UGN5); assay: Inhibition of recombinant human full-length PARP-2 using biotinylated substrate
Homo sapiens = species on record: Homo sapiens; assay: Selectivity index, ratio of IC50 for inhibition of recombinant human full-length PARP-2 to IC50 for inhibition of recombinant human full-length PARP-1
[2] = molecular target: Poly [ADP-ribose] polymerase 1 (Homo sapiens, UniProt P09874); assay: Inhibition of recombinant human full-length PARP-1 using biotinylated substrate
Poly [ADP-ribose] polymerase 1, sequence (P09874 whole entry): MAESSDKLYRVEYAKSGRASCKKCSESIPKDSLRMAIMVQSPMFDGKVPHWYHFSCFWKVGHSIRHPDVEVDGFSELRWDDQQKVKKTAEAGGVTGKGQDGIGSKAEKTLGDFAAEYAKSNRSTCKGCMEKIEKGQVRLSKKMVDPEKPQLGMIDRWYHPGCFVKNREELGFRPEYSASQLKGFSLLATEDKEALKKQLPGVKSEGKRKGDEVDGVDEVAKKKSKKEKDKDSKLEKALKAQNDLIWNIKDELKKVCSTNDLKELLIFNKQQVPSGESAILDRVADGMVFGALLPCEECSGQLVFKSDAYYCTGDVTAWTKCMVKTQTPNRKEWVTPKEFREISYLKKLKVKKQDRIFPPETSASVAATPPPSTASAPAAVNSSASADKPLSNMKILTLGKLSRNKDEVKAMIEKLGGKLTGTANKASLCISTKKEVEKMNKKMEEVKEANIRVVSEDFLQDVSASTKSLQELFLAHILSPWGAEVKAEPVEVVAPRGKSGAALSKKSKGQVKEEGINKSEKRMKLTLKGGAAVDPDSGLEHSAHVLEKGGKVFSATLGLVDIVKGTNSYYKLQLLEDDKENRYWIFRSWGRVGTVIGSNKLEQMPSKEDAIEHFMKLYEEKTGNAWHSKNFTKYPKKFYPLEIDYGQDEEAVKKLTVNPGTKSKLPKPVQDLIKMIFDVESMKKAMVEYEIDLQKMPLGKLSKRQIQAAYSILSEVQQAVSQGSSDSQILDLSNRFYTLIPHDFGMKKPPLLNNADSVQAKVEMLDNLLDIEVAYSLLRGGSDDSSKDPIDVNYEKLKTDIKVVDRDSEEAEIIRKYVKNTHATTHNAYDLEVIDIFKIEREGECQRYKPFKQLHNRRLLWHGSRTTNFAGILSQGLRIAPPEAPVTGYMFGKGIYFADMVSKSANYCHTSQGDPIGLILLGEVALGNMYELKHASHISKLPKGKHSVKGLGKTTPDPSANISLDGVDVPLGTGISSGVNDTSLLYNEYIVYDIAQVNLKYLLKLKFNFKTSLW

Poly [ADP-ribose] polymerase 2, sequence (Q9UGN5 whole entry): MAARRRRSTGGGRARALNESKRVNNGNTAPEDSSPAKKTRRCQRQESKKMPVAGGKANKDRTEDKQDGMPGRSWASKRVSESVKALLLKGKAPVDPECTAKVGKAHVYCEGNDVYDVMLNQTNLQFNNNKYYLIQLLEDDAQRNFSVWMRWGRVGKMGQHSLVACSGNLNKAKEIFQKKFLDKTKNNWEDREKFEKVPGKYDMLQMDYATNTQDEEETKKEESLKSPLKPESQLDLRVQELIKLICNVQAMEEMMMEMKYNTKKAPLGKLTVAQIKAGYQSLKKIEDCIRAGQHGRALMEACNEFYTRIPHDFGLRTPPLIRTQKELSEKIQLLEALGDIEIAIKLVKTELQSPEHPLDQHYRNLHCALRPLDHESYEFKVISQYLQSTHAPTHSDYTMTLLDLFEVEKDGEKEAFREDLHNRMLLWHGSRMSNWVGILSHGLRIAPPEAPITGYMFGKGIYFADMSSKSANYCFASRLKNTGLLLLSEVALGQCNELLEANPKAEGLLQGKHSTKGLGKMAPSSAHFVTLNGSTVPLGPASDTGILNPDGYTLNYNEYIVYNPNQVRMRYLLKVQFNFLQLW

| SMILES | pIC50 [1] | Ratio IC50 (Homo sapiens) | pIC50 [2] |
| --- | --- | --- | --- |
| CC(=O)N1CCN(Cc2c(O)cc(O)c3c(=O)cc(-c4ccc(O)cc4)oc23)CC1 | 5.52 | 70.4 | 7.37 |
| O=c1cc(-c2cccc(-c3c(O)cc(O)c4c(=O)cc(-c5ccc(O)c(O)c5)oc34)c2)oc2cc(O)cc(O)c12 | 4.53 | 45.9 | 6.19 |
| COc1ccc(CN2CCN(Cc3c(O)cc(O)c4c(=O)cc(-c5ccc(O)cc5)oc34)CC2)cc1 | 5.70 | 56.5 | 7.45 |
| O=c1cc(-c2ccc(O)cc2)oc2c(CN3CCN(c4ccc(O)cc4)CC3)c(O)cc(O)c12 | 5.54 | 73 | 7.40 |
| O=c1cc(-c2ccc(O)cc2)oc2c(CN3CCN(Cc4ccncc4)CC3)c(O)cc(O)c12 | 5.96 | 55.5 | 7.70 |
| O=c1cc(-c2ccc(O)cc2)oc2c(CN3CCN(Cc4ccsc4)CC3)c(O)cc(O)c12 | 5.55 | 56.2 | 7.30 |
| O=c1cc(-c2ccc(O)cc2)oc2c(CN3CCN(CC4CCCO4)CC3)c(O)cc(O)c12 (stereo unspecified) | 5.60 | 61.9 | 7.39 |
| Cc1ccc(-c2cc(=O)c3c(O)cc(O)c(-c4cccc(-c5cc(=O)c6c(O)cc(O)cc6o5)c4)c3o2)cc1C | 4.90 | 50.9 | 6.60 |
| COC(=O)C1CCN(Cc2c(O)cc(O)c3c(=O)cc(-c4ccc(O)cc4)oc23)CC1 | 5.17 | 68.6 | 7.01 |
| O=c1cc(-c2cccc(-c3c(O)cc(O)c4c(=O)cc(-c5ccc(O)cc5)oc34)c2)oc2cc(O)cc(O)c12 | 4.99 | 52.5 | 6.71 |
| COc1ccc(C(=O)N2CCN(Cc3c(O)cc(O)c4c(=O)cc(-c5ccc(O)cc5)oc34)CC2)cc1 | 5.60 | 57.6 | 7.36 |
| CC(C)C(=O)N1CCN(Cc2c(O)cc(O)c3c(=O)cc(-c4ccc(O)cc4)oc23)CC1 | 5.68 | 55.4 | 7.42 |
| O=C(c1ccccn1)N1CCN(Cc2c(O)cc(O)c3c(=O)cc(-c4ccc(O)cc4)oc23)CC1 | 5.89 | 59.6 | 7.66 |
| O=c1cc(-c2ccc(O)cc2)oc2c(CN3CCN(CC4CC4)CC3)c(O)cc(O)c12 | 5.54 | 53.1 | 7.26 |
| Cc1ccc(N2CCN(Cc3c(O)cc(O)c4c(=O)cc(-c5ccc(O)cc5)oc34)CC2)cc1 | 5.55 | 57.7 | 7.31 |
| O=C(c1ccc(Cl)cc1)N1CCN(Cc2c(O)cc(O)c3c(=O)cc(-c4ccc(O)cc4)oc23)CC1 | 5.52 | 53.4 | 7.25 |
| O=c1cc(-c2ccc(O)cc2)oc2c(CN3CCC(CO)CC3)c(O)cc(O)c12 | 5.32 | 59.8 | 7.10 |
| CCOC(=O)C1CCN(Cc2c(O)cc(O)c3c(=O)cc(-c4ccc(O)cc4)oc23)CC1 | 5.25 | 60.3 | 7.03 |
| O=C(C1CC1)N1CCN(Cc2c(O)cc(O)c3c(=O)cc(-c4ccc(O)cc4)oc23)CC1 | 5.60 | 66.7 | 7.43 |
| O=C(c1ccccc1)N1CCN(Cc2c(O)cc(O)c3c(=O)cc(-c4ccc(O)cc4)oc23)CC1 | 5.54 | 57.2 | 7.29 |
| O=C(c1cccc(F)c1F)C1CCN(Cc2c(O)cc(O)c3c(=O)cc(-c4ccc(O)cc4)oc23)CC1 | 5.35 | 56.8 | 7.10 |
| O=c1cc(-c2ccc(O)cc2)oc2c(CN3CCN(Cc4ccc(C(F)(F)F)cc4)CC3)c(O)cc(O)c12 | 5.72 | 63.7 | 7.53 |
| O=c1cc(-c2ccc(O)cc2)oc2c(CN3CCN(c4ccccc4)CC3)c(O)cc(O)c12 | 5.68 | 59 | 7.45 |
| O=c1cc(-c2ccc(O)cc2)oc2c(CN3CCN(c4ccccc4O)CC3)c(O)cc(O)c12 | 5.70 | 54 | 7.43 |

| SMILES | pIC50 [1] | Ratio IC50 (Homo sapiens) | pIC50 [2] |
| --- | --- | --- | --- |
| O=C(C1CCCCC1)N1CCN(Cc2c(O)cc(O)c3c(=O)cc(-c4ccc(O)cc4)oc23)CC1 | 5.64 | 51.7 | 7.35 |
| O=c1cc(-c2ccc(O)cc2)oc2c(CN3CCN(c4ccc(C(F)(F)F)cc4)CC3)c(O)cc(O)c12 | 5.55 | 56.2 | 7.30 |
| COc1ccc(CN2CCN(Cc3c(O)cc(O)c4c(=O)cc(-c5ccc(O)cc5)oc34)CC2)c(OC)c1OC | 5.92 | 55.5 | 7.67 |
| CC(C)CCN1CCN(Cc2c(O)cc(O)c3c(=O)cc(-c4ccc(O)cc4)oc23)CC1 | 5.43 | 52.4 | 7.15 |
| Cc1cc(C)cc(COC(=O)N2CCN(Cc3c(O)cc(O)c4c(=O)cc(-c5ccc(O)cc5)oc34)CC2)c1 | 5.70 | 57.8 | 7.46 |
| O=c1cc(-c2ccc(O)cc2)oc2c(CN3CCN(Cc4ccc(Cl)cc4)CC3)c(O)cc(O)c12 | 5.74 | 57 | 7.50 |
| O=c1cc(-c2ccc(O)cc2)oc2c(CN3CCN(c4ccc(F)cc4)CC3)c(O)cc(O)c12 | 5.54 | 56.4 | 7.29 |
| O=C(C1CCC1)N1CCN(Cc2c(O)cc(O)c3c(=O)cc(-c4ccc(O)cc4)oc23)CC1 | 5.59 | 57.1 | 7.34 |
| O=c1cc(-c2cccc(-c3c(O)cc(O)c4c(=O)cc(-c5ccc(F)cc5)oc34)c2)oc2cc(O)cc(O)c12 | 5.07 | 47.4 | 6.75 |
| O=c1cc(-c2ccc(O)cc2)oc2c(CN3CCN(CC4CCCCC4)CC3)c(O)cc(O)c12 | 5.49 | 54.9 | 7.23 |
| O=c1cc(-c2ccc(O)cc2)oc2c(CN3CCN(Cc4ccoc4)CC3)c(O)cc(O)c12 | 5.59 | 59.4 | 7.36 |
| O=c1cc(-c2cccc(-c3c(O)cc(O)c4c(=O)cc(-c5ccco5)oc34)c2)oc2cc(O)cc(O)c12 | 4.83 | 38 | 6.41 |
| O=c1cc(-c2ccc(O)cc2)oc2c(CN3CCN(c4cncnc4)CC3)c(O)cc(O)c12 | 5.74 | 61 | 7.53 |
| O=c1cc(-c2ccc(O)cc2)oc2c(CN3CCN(c4ccc(Cl)cc4)CC3)c(O)cc(O)c12 | 5.43 | 60.8 | 7.22 |
| O=c1cc(-c2ccc(O)cc2)oc2c(CN3CCN(Cc4ccc(F)cc4)CC3)c(O)cc(O)c12 | 5.70 | 58 | 7.46 |
| O=c1cc(-c2cccc(-c3c(O)cc(O)c4c(=O)cc(-c5ccc(C(F)(F)F)cc5)oc34)c2)oc2cc(O)cc(O)c12 | 4.58 | 52.6 | 6.30 |
| O=C(c1cccc(C(F)(F)F)c1)N1CCN(Cc2c(O)cc(O)c3c(=O)cc(-c4ccc(O)cc4)oc23)CC1 | 5.54 | 69.2 | 7.38 |
| Cc1ccc(-c2cc(=O)c3c(O)cc(O)c(-c4cccc(-c5cc(=O)c6c(O)cc(O)cc6o5)c4)c3o2)cc1 | 4.90 | 42.2 | 6.53 |
| O=C(c1ccncc1)N1CCN(Cc2c(O)cc(O)c3c(=O)cc(-c4ccc(O)cc4)oc23)CC1 | 5.85 | 50.7 | 7.56 |
| O=c1cc(-c2ccc(O)cc2)oc2c(CN3CC=C(c4ccccc4)CC3)c(O)cc(O)c12 | 5.10 | 56.6 | 6.86 |
| O=c1cc(-c2ccc(O)cc2)oc2c(CN3CCC(c4ccccc4)CC3)c(O)cc(O)c12 | 5.40 | 55.6 | 7.14 |
| O=C(OCc1ccccc1)N1CCN(Cc2c(O)cc(O)c3c(=O)cc(-c4ccc(O)cc4)oc23)CC1 | 5.68 | 47.9 | 7.36 |
| O=c1cc(-c2cccc(-c3c(O)cc(O)c4c(=O)cc(-c5cccs5)oc34)c2)oc2cc(O)cc(O)c12 | 4.95 | 55 | 6.69 |
